What follows are compounds tested on NIH3T3 (assay: Cytotoxicity against Swiss mouse 3T3 cells up to 250 uM after 72 hrs). Conditions: nih3t3, 72 h.
Format: cell-based

Compound | Activity
Cc1c(C)[n+](C)c(SCC(=O)CC[C@H](NC(=O)[C@H](Cc2ccccc2)NC(=O)OCc2ccccc2)C(=O)O)n1C.[Br-] | Non-toxic

The compounds below were run against T1, Coagulation factor XIII A chain (Homo sapiens, UniProt P00488) (assay: Inhibition of recombinant human F13a-mediated biotin X-cadaverine incorporation into N,N'-dimethylcasein after 1 hr). Conditions: not given.
T1 sequence (P00488 whole entry): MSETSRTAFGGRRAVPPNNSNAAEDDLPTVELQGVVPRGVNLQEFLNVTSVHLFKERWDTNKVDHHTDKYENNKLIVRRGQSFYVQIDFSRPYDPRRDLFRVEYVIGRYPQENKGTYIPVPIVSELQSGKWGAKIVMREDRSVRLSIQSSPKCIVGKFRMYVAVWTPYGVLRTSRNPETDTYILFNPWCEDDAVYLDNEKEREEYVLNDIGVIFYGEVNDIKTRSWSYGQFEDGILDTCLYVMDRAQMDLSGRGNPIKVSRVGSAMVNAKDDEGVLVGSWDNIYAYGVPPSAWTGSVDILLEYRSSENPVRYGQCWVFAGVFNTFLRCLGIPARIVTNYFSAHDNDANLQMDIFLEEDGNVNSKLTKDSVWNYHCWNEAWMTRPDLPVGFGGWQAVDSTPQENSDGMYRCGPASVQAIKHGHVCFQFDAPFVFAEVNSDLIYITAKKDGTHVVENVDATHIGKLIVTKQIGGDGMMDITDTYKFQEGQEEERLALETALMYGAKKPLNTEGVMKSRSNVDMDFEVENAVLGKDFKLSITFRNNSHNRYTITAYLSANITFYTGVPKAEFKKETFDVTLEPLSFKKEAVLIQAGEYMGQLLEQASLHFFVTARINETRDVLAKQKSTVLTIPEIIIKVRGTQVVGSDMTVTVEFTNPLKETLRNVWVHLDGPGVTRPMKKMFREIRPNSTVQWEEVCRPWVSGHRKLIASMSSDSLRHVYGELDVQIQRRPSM

Compound | IC50
Cc1c(C)[n+](C)c(SCC(=O)CC[C@H](NC(=O)[C@H](Cc2ccccc2)NC(=O)OCc2ccccc2)C(=O)O)n1C.[Br-] | 5 µM
Cc1c(C)[n+](C)c(SCC(=O)CC[C@H](NC(=O)CNC(=O)OCc2ccccc2)C(=O)O)n1-c1ccccc1 | > 200 µM
Cc1c(C)[n+](C)c(SCC(=O)CC[C@H](NC(=O)[C@H](Cc2ccccc2)NC(=O)OCc2ccccc2)C(=O)O)n1-c1ccccc1 | > 200 µM
CCn1c(C)c(C)[n+](CC)c1SCC(=O)CC[C@H](NC(=O)CNC(=O)OCc1ccccc1)C(=O)O | > 200 µM
CCCc1c(CCC)[n+](C)c(SCC(=O)CC[C@H](NC(=O)CNC(=O)OCc2ccccc2)C(=O)O)n1C | 20 µM
Cc1c(C)[n+](C)c(SCC(=O)CC[C@H](NC(=O)CNC(=O)OCc2ccccc2)C(=O)O)n1C | 2 µM
CCC[n+]1c(C)c(C)n(C)c1SCC(=O)CC[C@H](NC(=O)[C@H](Cc1ccccc1)NC(=O)OCc1ccccc1)C(=O)O | > 200 µM
CC[S+](CC)CC(=O)CC[C@H](NC(=O)[C@H](Cc1ccccc1)NC(=O)OCc1ccccc1)C(=O)O | > 200 µM
CCn1c(C)c(C)[n+](CC)c1SCC(=O)CC[C@H](NC(=O)[C@H](Cc1ccccc1)NC(=O)OCc1ccccc1)C(=O)O | 50 µM
CCC[n+]1c(C)c(C)n(C)c1SCC(=O)CC[C@H](NC(=O)CNC(=O)OCc1ccccc1)C(=O)O | 30 µM
C[S+](C)CC(=O)CC[C@H](NC(=O)[C@H](Cc1ccccc1)NC(=O)OCc1ccccc1)C(=O)O | 105 µM
CCCc1c(CCC)[n+](C)c(SCC(=O)CC[C@H](NC(=O)[C@H](Cc2ccccc2)NC(=O)OCc2ccccc2)C(=O)O)n1C | 10 µM
C[S+](C)CC(=O)CC[C@H](NC(=O)CNC(=O)OCc1ccccc1)C(=O)O | > 200 µM
Cc1c(C)[n+](C)c(SCC(=O)CC[C@H](NC(=O)[C@H](Cc2ccccc2)NC(=O)OCc2ccccc2)C(=O)O)n1Cc1ccccc1 | > 200 µM
CC[S+](CC)CC(=O)CC[C@H](NC(=O)CNC(=O)OCc1ccccc1)C(=O)O | > 200 µM
Cc1c(C)[n+](C)c(SCC(=O)CC[C@H](NC(=O)CNC(=O)OCc2ccccc2)C(=O)O)n1Cc1ccccc1 | > 200 µM

Each compound was assayed against T2, Protein-glutamine gamma-glutamyltransferase (Homo sapiens, UniProt P21980) (assay: Inhibition of recombinant human tissue transglutaminase-mediated biotin X-cadaverine incorporation into N,N'-dimethylcasein after 1 hr). Conditions: not given.
T2 sequence (P21980 whole entry): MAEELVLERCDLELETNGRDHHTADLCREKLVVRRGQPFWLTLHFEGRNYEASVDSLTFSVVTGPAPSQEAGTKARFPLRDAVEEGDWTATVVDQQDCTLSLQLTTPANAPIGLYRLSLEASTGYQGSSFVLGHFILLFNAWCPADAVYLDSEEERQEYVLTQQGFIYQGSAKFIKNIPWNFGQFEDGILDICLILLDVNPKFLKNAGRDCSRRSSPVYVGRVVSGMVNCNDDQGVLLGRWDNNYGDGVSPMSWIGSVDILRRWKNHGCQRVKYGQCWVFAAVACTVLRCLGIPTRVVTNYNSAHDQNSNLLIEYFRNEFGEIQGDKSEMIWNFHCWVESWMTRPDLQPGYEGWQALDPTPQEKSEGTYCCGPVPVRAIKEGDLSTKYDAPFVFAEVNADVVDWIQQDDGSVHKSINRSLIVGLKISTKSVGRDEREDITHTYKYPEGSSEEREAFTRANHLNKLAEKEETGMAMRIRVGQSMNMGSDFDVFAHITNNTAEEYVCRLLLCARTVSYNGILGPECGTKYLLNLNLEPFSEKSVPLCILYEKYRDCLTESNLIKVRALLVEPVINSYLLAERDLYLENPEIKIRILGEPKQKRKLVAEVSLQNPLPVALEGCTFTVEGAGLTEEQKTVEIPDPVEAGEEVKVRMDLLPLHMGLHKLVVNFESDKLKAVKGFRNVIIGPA

Compound | IC50
Cc1c(C)[n+](C)c(SCC(=O)CC[C@H](NC(=O)[C@H](Cc2ccccc2)NC(=O)OCc2ccccc2)C(=O)O)n1C.[Br-] | 3 µM
Cc1c(C)[n+](C)c(SCC(=O)CC[C@H](NC(=O)CNC(=O)OCc2ccccc2)C(=O)O)n1-c1ccccc1 | > 200 µM
Cc1c(C)[n+](C)c(SCC(=O)CC[C@H](NC(=O)[C@H](Cc2ccccc2)NC(=O)OCc2ccccc2)C(=O)O)n1-c1ccccc1 | > 200 µM
CCn1c(C)c(C)[n+](CC)c1SCC(=O)CC[C@H](NC(=O)CNC(=O)OCc1ccccc1)C(=O)O | > 200 µM
CCCc1c(CCC)[n+](C)c(SCC(=O)CC[C@H](NC(=O)CNC(=O)OCc2ccccc2)C(=O)O)n1C | 10 µM
Cc1c(C)[n+](C)c(SCC(=O)CC[C@H](NC(=O)CNC(=O)OCc2ccccc2)C(=O)O)n1C | 1 µM
CCC[n+]1c(C)c(C)n(C)c1SCC(=O)CC[C@H](NC(=O)[C@H](Cc1ccccc1)NC(=O)OCc1ccccc1)C(=O)O | > 200 µM
CC[S+](CC)CC(=O)CC[C@H](NC(=O)[C@H](Cc1ccccc1)NC(=O)OCc1ccccc1)C(=O)O | 20 µM
CCn1c(C)c(C)[n+](CC)c1SCC(=O)CC[C@H](NC(=O)[C@H](Cc1ccccc1)NC(=O)OCc1ccccc1)C(=O)O | > 200 µM
CCC[n+]1c(C)c(C)n(C)c1SCC(=O)CC[C@H](NC(=O)CNC(=O)OCc1ccccc1)C(=O)O | > 200 µM
C[S+](C)CC(=O)CC[C@H](NC(=O)[C@H](Cc1ccccc1)NC(=O)OCc1ccccc1)C(=O)O | 10 µM
CCCc1c(CCC)[n+](C)c(SCC(=O)CC[C@H](NC(=O)[C@H](Cc2ccccc2)NC(=O)OCc2ccccc2)C(=O)O)n1C | 5 µM
C[S+](C)CC(=O)CC[C@H](NC(=O)CNC(=O)OCc1ccccc1)C(=O)O | 8 µM
Cc1c(C)[n+](C)c(SCC(=O)CC[C@H](NC(=O)[C@H](Cc2ccccc2)NC(=O)OCc2ccccc2)C(=O)O)n1Cc1ccccc1 | > 200 µM
CC[S+](CC)CC(=O)CC[C@H](NC(=O)CNC(=O)OCc1ccccc1)C(=O)O | 20 µM
Cc1c(C)[n+](C)c(SCC(=O)CC[C@H](NC(=O)CNC(=O)OCc2ccccc2)C(=O)O)n1Cc1ccccc1 | > 200 µM

— ChEMBL document CHEMBL2413014, “Imidazolium-based warheads strongly influence activity of water-soluble peptidic transglutaminase inhibitors” (Eur J Med Chem, 2013)
